{"source": "patent US20250375417A1", "about": "“OREXIN RECEPTOR 2 (OX2R) AGONIST FOR USE IN NARCOLEPSY TYPE 1 (NT1)” (TAKEDA PHARMACEUTICAL COMPANY LIMITED, priority 2024, published 2025)", "format_in_all_cases": "in vivo, human", "key": {"participants with NT2": {"tested_on": "participants with NT2", "assay": "Safety (TEAEs), long-term extension (LTE) study, NT2 participants", "protocol": "Eligible participants were age 18-70 years, with Epworth Sleepiness Scale (ESS) score>12 and no other current EDS-related medical conditions. Participants were randomized 1:1:1 to daily oral Compound A 2 mg twice 3 hours apart, 2 mg then 5 mg 3 hours later, or placebo. Study endpoints included change from baseline to Week 8 in mean Sleep Onset Latency on the Maintenance of Wakefulness Test (mean SOL-MWT; primary endpoint), ESS total score, and incidence of treatment-emergent adverse events (TEAEs). Participants who completed the placebo-controlled study could enroll in a ˜2-year Long Term Extension (LTE) study. LTE TEAE data up to Jan. 25, 2024 are reported.\nThis was a phase 2/3 multicenter, dose-blind, long-term extension (LTE) study of Compound A. Participants from controlled studies conducted with Compound A, who had up to a 3-month dosing gap between their parent study and the screening period for this study, were eligible to participate in this study.\nDay 1 dosing for all participants occurred in-clinic with PK and safety assessments. Participants who were undergoing nocturnal polysomnography (nPSG) and an MWT during the final assessment of their Compound A parent study had the option of staying overnight in the clinic on Day −1 so they were already in the clinic for Day 1 the following day. […]"}, "participants with NT1 [1]": {"tested_on": "participants with NT1", "assay": "Epworth Sleepiness Scale (ESS), Phase 2 NT1 trial", "from_the_text": "In some aspects of the methods described herein, the subject experiences a lower Epworth Sleepiness Scale (ESS) total score after a treatment period compared to an untreated subject. The ESS is a subjective, self-administered scale that has been validated and used extensively as a key endpoint in studies in patients with narcolepsy to measure excessive daytime sleepiness (EDS). The ESS provides individuals with 8 different situations of daily life and asks them how likely they are to fall asleep in those situations (scored 0 to 3) and to try to imagine their likelihood of dozing even if they have not actually been in the identical situation; the scores are summed to give an overall score of 0 to 24. Higher scores indicate stronger subjective daytime sleepiness, and scores below 10 are considered to be within the reference range.\nIn certain aspects, the ESS is administered to assess sleep propensity on selected days indicated in the Schedule of Activities for the trial. Participants are asked to evaluate their subjective sleepiness based on recalling their most recent daily life experiences.\nRandomization was stratified by region. Starting on the morning of Day 1, the study drug was administered at approximately the same time each day for 8 or 12 weeks. […]"}, "participants with NT1 [2]": {"tested_on": "participants with NT1", "assay": "Maintenance of Wakefulness Test (MWT) sleep onset latency, Phase 2 NT1 trial (Example 1)", "protocol": "In some aspects of the methods described herein, the subject experiences a higher mean sleep latency (also referred to as sleep onset latency or SOL) from the Maintenance of Wakefulness Test (MWT) after a treatment period compared to an untreated subject. The MWT is a validated, objective measure that evaluates a person's ability to remain awake under soporific conditions for a defined period of time. Because there is no biological measure of wakefulness, wakefulness is measured indirectly by the inability or delayed tendency to fall asleep. This tendency to fall asleep is measured via electroencephalography-derived sleep latency in the MWT. One MWT, that includes four 40-minute wake trials, is done on each day specified in the Schedule of Activities of the trial. Sleep latency in each wake trial is recorded. Participants are required to stay awake in between the 4 MWT wake trials.\nDuring each MWT wake trial, participants are instructed to sit in a bed or reclining chair and remain awake for as long as possible in a dimly lit room. Wake trials are ended after 40 minutes if no sleep occurs. If no sleep has been observed according to these rules, then the latency is defined as 40 minutes.\nRandomization was stratified by region. Starting on the morning of Day 1, the study drug was administered at approximately the same time each day for 8 or 12 weeks. If the participant wished to enroll in the long-term extension (LTE) study described in Example 3 but the LTE study had not started at the participant's site when the participant completed the Week 8 visit of the current study, the participant was allowed to continue in the current study for an additional 4 weeks.\nThe following doses were studied: • Compound A Dose Regimen 1:0.5 mg twice daily approximately 3 hours apart. • Compound A Dose Regimen 2:2 mg twice daily approximately 3 hours apart. • Compound A Dose Regimen 3:2 mg followed by 5 mg approximately 3 hours apart. • Compound A Dose Regimen 4:7 mg once daily (QD). • Other products required for the study: Matching placebo.\nDose regimens included once daily (QD) or twice daily (approximately 3 hours apart) dosing. Study treatment was administered at approximately 8 AM and 11 AM. (Participants assigned to a QD dose regimen received placebo for the second dose. Participants assigned to placebo received placebo for both doses).\nEndpoints included change from baseline to Week 8 in mean sleep onset latency on the Maintenance of Wakefulness Test (SOL-MWT; primary endpoint), ESS total score, weekly cataplexy rate (WCR), and occurrence of treatment-emergent adverse events (TEAEs)."}}, "data": [{"molecule": "CCS(=O)(=O)N[C@@H]1[C@H](Cc2cccc(-c3cc(F)cc(F)c3)c2F)N(C(=O)C(C)(C)O)CC1(F)F", "note": "[Compound A, N-{(2S,3R)-4,4-difluoro-1-(2-hydroxy-2-methylpropanoyl)-2-[(2,3′,5′-trifluoro[1,1′-biphenyl]-3-yl)methyl]pyrrolidin-3-yl}ethanesulfonamide]", "values": [{"measurement": "Participants discontinued due to TEAEs", "setting": "participants with NT2", "result": 3}, {"measurement": "Participants who experienced TEAEs", "setting": "participants with NT2; treated participants (41/57), data up to Jan. 25, 2024", "result": 71.9, "unit": "%"}, {"measurement": "Change from baseline to Week 8 in ESS versus placebo", "setting": "participants with NT1 [1]; all dose groups, adjusted for multiple comparisons", "result": "statistically significant changes"}, {"measurement": "Participants with ESS≤10", "setting": "participants with NT1 [1]; weeks 4 and 8 (FIG. 4)", "result": "Most participants achieved ESS total score≤10"}, {"measurement": "LS mean (SE) change from baseline to Week 8 in SOL-MWT", "setting": "participants with NT1 [2]; 0.5 mg/0.5 mg", "result": "12.49 (2.13) minutes"}, {"measurement": "LS mean (SE) change from baseline to Week 8 in SOL-MWT", "setting": "participants with NT1 [2]; 2 mg/2 mg", "result": "23.50 (2.04) minutes"}, {"measurement": "LS mean (SE) change from baseline to Week 8 in SOL-MWT", "setting": "participants with NT1 [2]; 2 mg/5 mg", "result": "25.42 (2.07) minutes"}, {"measurement": "LS mean (SE) change from baseline to Week 8 in SOL-MWT", "setting": "participants with NT1 [2]; 7 mg", "result": "14.96 (1.95) minutes"}]}]}
